# From patent US5149717A, “Alkanophenones useful for treating allergies” (Ciba-Geigy Corporation, priority 1988, dated 1992)
# Counter-ions that a name gives are not always drawn.
# Assays:
# [1] = biological target: phospholipase A2 obtained from human leucocytes; test: In vitro test to determine the inhibition of phospholipase A2 obtained from human leucocytes; type: biochemical; details: under the described test conditions
# Procedure: Neutrophilic polymorpho-nuclear human leucocytes are isolated from "Buffy coats" by multi-step fractional sedimentation and are deep-frozen. The phospholipase A2 is extracted from the cell suspension by homogenisation with the addition of ice-cold 0.36N H2 SO4 in 2N NaCl and the supernatant obtained after centrifugation at 10,000×g is dialysed against sodium acetate buffer pH 4.5.
# In order to determine the enzyme activity, enzyme (10-30 μg of protein) is incubated at 37° for 1 hour in 0.1M tris/HCl buffer pH 7 with the addition of 1 mmol of CaCl2 and substrate consisting of phospholipids (2 μm) of Escherichia coli radioactively labelled biosynthetically with ^14 C-oleic acid. The reaction is stopped by the addition of Dole reagent (isopropanol/heptane/1N H2 SO4 40:10:1, v/v) and the ^14 C-oleic acid freed selectively by phospholipase A2 is extracted. […]
# In order to detect an inhibitory action of test substances on phospholipase A2, the test substances are added to the incubation mixture in the form of solutions in water, dimethyl sulfoxide (final concentration in the batch up to 5%, v/v) or ethanol (final concentration in the batch up to 2.5%, v/v). […] The IC50 is determined graphically by plotting the percentage inhibition on the ordinate against the log of the concentration (μm) on the abscissa.
# [2] = biological target: phospholipase C obtained from human thrombocytes; test: In vitro test to determine the inhibition of phospholipase C obtained from human thrombocytes; type: biochemical; details: under the described test conditions
# Procedure: Human thrombocytes are obtained from "Buffy coats" by fractional centrifugation and are then deep-frozen. The phospholipase C is freed by ultrasound treatment of the cell suspension and after ultracentrifugation (150,000×g for 1 hour) is present in soluble form in the supernatant.
# In order to determine the enzyme activity, enzyme (20-100 μg of protein) is incubated at 37° for 5 minutes in 0.025M tris/maleate buffer pH 6 with the addition of 0.2 mmol of CaCl2 and 0.02 mmol of radioactively labelled substrate, phosphatidyl-[^14 C]-inositol. The reaction is stopped by shaking with CHCl3 /CH3 OH 2:1 (v/v), in the course of which unused substrate is extracted into the organic phase, while the reaction product, ^14 C-inositol phosphate, remains in the aqueous phase and can be measured by radiometry of an aliquot.
# In order to detect an inhibitory action of test substances on phospholipase C, the test substances are added to the incubation mixture in the form of solutions in water, dimethyl sulfoxide (final concentration in the batch up to 5%, v/v) or ethanol (final concentration in the batch up to 2.5%, v/v). […] The IC50 is determined graphically by plotting the percentage inhibition on the ordinate against the log of the concentration (μm) on the abscissa.
structure (smiles),measurement,setting,value
"CCN(CC)CCCC(C)Nc1c2ccc(Cl)cc2nc2ccc(OC)cc12 (centres unmarked) [MEPACRINE, quinacrin hydrochloride]",IC50,[1],1600 µM
same,IC50,[2],20 µM
